# Values of other authors in patent publication US20180256556A1, “METHODS FOR TREATING AN IMPAIRMENT IN GAIT AND/OR BALANCE IN PATIENTS WITH MULTIPLE SCLEROSIS USING AN AMINOPYRIDINE” (Acorda Therapeutics, Inc., priority 2012, published 2018).
# What was measured:
# [1] = tested on: potassium channels; details: high concentration (millimolar)
# [2] = tested on: patients with multiple sclerosis; details: p<0.05
compound,measurement,setting,value
"Nc1ccncc1 [4-AP, 4-aminopyridine]",Potassium channel blocking activity,[1],broad-spectrum blocker of potassium channels
same,Leg strength (LEMMT) relative to placebo,[2],statistically significantly improved
